# Reference: ChEMBL document CHEMBL4138123, “Design, synthesis and biological evaluation of novel pyrazolochalcones as potential modulators of PI3K/Akt/mTOR pathway and inducers of apoptosis in breast cancer cells” (Eur J Med Chem, 2017)
# Tests used:
# Assay type in all cases: functional
# Malme-3M [1] = assay: Cytotoxicity against human MALME-3M cells assessed as cell growth at 100 uM after 48 hrs by sulforhodamine B assay relative to control; settings: read-out: Activity
# CCRF-CEM [2] = assay: Cytotoxicity against human CCRF-CEM cells assessed as cell growth at 0.01 uM after 48 hrs by sulforhodamine B assay relative to control; settings: read-out: Activity
# OVCAR-8 [3] = assay: Cytotoxicity against human OVCAR8 cells assessed as growth inhibition after 48 hrs by sulforhodamine B assay; settings: OVCAR-8, 48 h
# SK-MEL-28 = assay: Cytotoxicity against human SK-MEL-28 cells assessed as cell growth at 0.1 uM after 48 hrs by sulforhodamine B assay relative to control; settings: SK-MEL-28, 48 h, read-out: Activity
# MDA-MB-468 = assay: Cytotoxicity against human MDA-MB-468 cells assessed as cell growth at 0.1 uM after 48 hrs by sulforhodamine B assay relative to control; settings: MDA-MB-468, 48 h, read-out: Activity
# PC-3 = assay: Cytotoxicity against human PC3 cells assessed as cell growth at 0.01 uM after 48 hrs by sulforhodamine B assay relative to control; settings: PC-3, 48 h, read-out: Activity
# SNB-19 = assay: Cytotoxicity against human SNB19 cells assessed as cell growth at 100 uM after 48 hrs by sulforhodamine B assay relative to control; settings: SNB-19, 48 h, read-out: Activity
# UACC-257 = assay: Cytotoxicity against human UACC257 cells assessed as cell growth at 1 uM after 48 hrs by sulforhodamine B assay relative to control; settings: UACC-257, 48 h, read-out: Activity
# NCI-H460 = assay: Cytotoxicity against human NCI-H460 cells assessed as cell growth at 1 uM after 48 hrs by sulforhodamine B assay relative to control; settings: NCI-H460, 48 h, read-out: Activity
# HT-29 [4] = assay: Cytotoxicity against human HT-29 cells assessed as cell growth at 0.1 uM after 48 hrs by sulforhodamine B assay relative to control; settings: HT-29, 48 h, read-out: Activity
# A549 [5] = assay: Cytotoxicity against human A549/ATCC cells assessed as growth inhibition after 48 hrs by sulforhodamine B assay; settings: A549, 48 h
# HCT-15 = assay: Cytotoxicity against human HCT15 cells assessed as cell growth at 0.1 uM after 48 hrs by sulforhodamine B assay relative to control; settings: HCT-15, 48 h, read-out: Activity
# MDA-MB-435 = assay: Cytotoxicity against human MDA-MB-435 cells assessed as cell growth at 0.01 uM after 48 hrs by sulforhodamine B assay relative to control; settings: MDA-MB-435, 48 h, read-out: Activity
# K562 = assay: Cytotoxicity against human K562 cells assessed as growth inhibition after 48 hrs by sulforhodamine B assay; settings: K562, 48 h
# RPMI-8226 [6] = assay: Cytotoxicity against human RPMI8226 cells assessed as cell growth at 0.01 uM after 48 hrs by sulforhodamine B assay relative to control; settings: RPMI-8226, 48 h, read-out: Activity
# SW-620 [7] = assay: Cytotoxicity against human SW620 cells assessed as cell growth at 10 uM after 48 hrs by sulforhodamine B assay relative to control; settings: SW-620, 48 h, read-out: Activity
# Malme-3M [8] = assay: Cytotoxicity against human MALME-3M cells assessed as growth inhibition after 48 hrs by sulforhodamine B assay
# COLO 205 = assay: Cytotoxicity against human COLO205 cells assessed as cell growth at 100 uM after 48 hrs by sulforhodamine B assay relative to control; settings: COLO 205, 48 h, read-out: Activity
# NCI-H226 [9] = assay: Cytotoxicity against human NCI-H226 cells assessed as cell growth at 10 uM after 48 hrs by sulforhodamine B assay relative to control; settings: NCI-H226, 48 h, read-out: Activity
# HCT-116 [10] = assay: Cytotoxicity against human HCT116 cells assessed as growth inhibition after 48 hrs by sulforhodamine B assay; settings: HCT-116, 48 h
# HT-29 [11] = assay: Cytotoxicity against human HT-29 cells assessed as cell growth at 0.01 uM after 48 hrs by sulforhodamine B assay relative to control; settings: HT-29, 48 h, read-out: Activity
# A549 [12] = assay: Cytotoxicity against human A549/ATCC cells assessed as cell growth at 0.01 uM after 48 hrs by sulforhodamine B assay relative to control; settings: A549, 48 h, read-out: Activity
# U-251 = assay: Cytotoxicity against human U251 cells assessed as cell growth at 10 uM after 48 hrs by sulforhodamine B assay relative to control; settings: U-251, 48 h, read-out: Activity
# SN12C = assay: Cytotoxicity against human SN12C cells assessed as cell growth at 100 uM after 48 hrs by sulforhodamine B assay relative to control; settings: read-out: Activity
# Malme-3M [13] = assay: Cytotoxicity against human MALME-3M cells assessed as cell growth at 10 uM after 48 hrs by sulforhodamine B assay relative to control; settings: read-out: Activity
# SF-268 = assay: Cytotoxicity against human SF268 cells assessed as cell growth at 0.01 uM after 48 hrs by sulforhodamine B assay relative to control; settings: SF-268, 48 h, read-out: Activity
# HCT-116 [14] = assay: Cytotoxicity against human HCT116 cells assessed as cell growth at 100 uM after 48 hrs by sulforhodamine B assay relative to control; settings: HCT-116, 48 h, read-out: Activity
# OVCAR-8 [15] = assay: Cytotoxicity against human OVCAR8 cells assessed as cell growth at 1 uM after 48 hrs by sulforhodamine B assay relative to control; settings: OVCAR-8, 48 h, read-out: Activity
# RPMI-8226 [16] = assay: Cytotoxicity against human RPMI8226 cells assessed as cell growth at 100 uM after 48 hrs by sulforhodamine B assay relative to control; settings: RPMI-8226, 48 h, read-out: Activity
# M14 = assay: Cytotoxicity against human M14 cells assessed as growth inhibition after 48 hrs by sulforhodamine B assay; settings: M14, 48 h
# SW-620 [17] = assay: Cytotoxicity against human SW620 cells assessed as cell growth at 1 uM after 48 hrs by sulforhodamine B assay relative to control; settings: SW-620, 48 h, read-out: Activity
# CCRF-CEM [18] = assay: Cytotoxicity against human CCRF-CEM cells assessed as cell growth at 1 uM after 48 hrs by sulforhodamine B assay relative to control; settings: read-out: Activity
# SF-539 = assay: Cytotoxicity against human SF539 cells assessed as cell growth at 100 uM after 48 hrs by sulforhodamine B assay relative to control; settings: SF-539, 48 h, read-out: Activity
# OVCAR-8 [19] = assay: Cytotoxicity against human OVCAR8 cells assessed as cell growth at 10 uM after 48 hrs by sulforhodamine B assay relative to control; settings: OVCAR-8, 48 h, read-out: Activity
# NCI-H226 [20] = assay: Cytotoxicity against human NCI-H226 cells assessed as cell growth at 100 uM after 48 hrs by sulforhodamine B assay relative to control; settings: NCI-H226, 48 h, read-out: Activity
smiles,measurement,setting,value
COc1cc(C(=O)/C=C/c2cc(-c3cc(OC)c(OC)c(OC)c3)n[nH]2)cc(OC)c1OC,growth at 100 µM,Malme-3M [1],-94%
same,growth at 0.01 µM,CCRF-CEM [2],96%
same,LC50,OVCAR-8 [3],6.81 µM
same,TGI,OVCAR-8 [3],3.28 µM
same,growth at 0.1 µM,SK-MEL-28,105%
same,growth at 0.1 µM,MDA-MB-468,84%
same,growth at 0.01 µM,PC-3,95%
same,growth at 100 µM,SNB-19,-98%
same,growth at 1 µM,UACC-257,85%
same,growth at 1 µM,NCI-H460,89%
same,growth at 0.1 µM,HT-29 [4],102%
same,LC50 (concentration giving 50% net cell kill),A549 [5],59.2 µM
same,TGI,A549 [5],12.1 µM
same,growth at 0.1 µM,HCT-15,94%
same,growth at 0.01 µM,MDA-MB-435,99%
same,LC50 (concentration killing 50% of cells),K562,> 100 µM
same,TGI,K562,> 100 µM
same,growth at 0.01 µM,RPMI-8226 [6],97%
same,growth at 10 µM,SW-620 [7],-89%
same,LC50,Malme-3M [8],8.99 µM
same,TGI,Malme-3M [8],4.09 µM
same,growth at 100 µM,COLO 205,-100%
same,growth at 10 µM,NCI-H226 [9],-92%
same,LC50,HCT-116 [10],5.12 µM
same,TGI,HCT-116 [10],2.59 µM
same,growth at 0.01 µM,HT-29 [11],95%
same,growth at 0.01 µM,A549 [12],97%
same,growth at 10 µM,U-251,-94%
same,growth at 100 µM,SN12C,-97%
same,growth at 10 µM,Malme-3M [13],-57%
same,growth at 0.01 µM,SF-268,99%
same,growth at 100 µM,HCT-116 [14],-88%
same,growth at 1 µM,OVCAR-8 [15],81%
same,growth at 100 µM,RPMI-8226 [16],-26%
same,LC50 (concentration killing 50% of cells),M14,6.13 µM
same,TGI,M14,3.32 µM
same,growth at 1 µM,SW-620 [17],85%
same,growth at 1 µM,CCRF-CEM [18],67%
same,growth at 100 µM,SF-539,-99%
same,growth at 10 µM,OVCAR-8 [19],-76%
same,growth at 100 µM,NCI-H226 [20],-50%
COc1cc(-c2cc(/C=C/C(=O)c3ccc(Cl)c(Cl)c3)[nH]n2)cc(OC)c1OC,growth at 100 µM,Malme-3M [1],24%
same,growth at 0.01 µM,CCRF-CEM [2],98%
same,LC50,OVCAR-8 [3],> 100 µM
same,TGI,OVCAR-8 [3],34 µM
same,growth at 0.1 µM,SK-MEL-28,114%
same,growth at 0.1 µM,MDA-MB-468,91%
same,growth at 0.01 µM,PC-3,95%
same,growth at 100 µM,SNB-19,12%
same,growth at 1 µM,UACC-257,90%
same,growth at 1 µM,NCI-H460,93%
same,growth at 0.1 µM,HT-29 [4],98%
same,LC50 (concentration giving 50% net cell kill),A549 [5],> 100 µM
same,TGI,A549 [5],> 100 µM
same,growth at 0.1 µM,HCT-15,94%
same,growth at 0.01 µM,MDA-MB-435,94%
same,LC50 (concentration killing 50% of cells),K562,> 100 µM
same,TGI,K562,64.4 µM
same,growth at 0.01 µM,RPMI-8226 [6],100%
same,growth at 10 µM,SW-620 [7],47%
same,LC50,Malme-3M [8],> 100 µM
same,TGI,Malme-3M [8],> 100 µM
same,growth at 100 µM,COLO 205,-42%
same,growth at 10 µM,NCI-H226 [9],67%
same,LC50,HCT-116 [10],> 100 µM
same,TGI,HCT-116 [10],21.5 µM
same,growth at 0.01 µM,HT-29 [11],100%
same,growth at 0.01 µM,A549 [12],101%
same,growth at 10 µM,U-251,48%
same,growth at 100 µM,SN12C,11%
same,growth at 10 µM,Malme-3M [13],72%
same,growth at 0.01 µM,SF-268,92%
same,growth at 100 µM,HCT-116 [14],-32%
same,growth at 1 µM,OVCAR-8 [15],88%
same,growth at 100 µM,RPMI-8226 [16],-25%
same,LC50 (concentration killing 50% of cells),M14,> 100 µM
same,TGI,M14,> 100 µM
same,growth at 1 µM,SW-620 [17],91%
same,growth at 1 µM,CCRF-CEM [18],71%
same,growth at 100 µM,SF-539,-74%
same,growth at 10 µM,OVCAR-8 [19],40%
